Measured values reported in patent publication US20100004333A1, “COMPOSITIONS AND METHODS FOR TREATING CARDIOVASCULAR DISORDERS” (priority 2004, published 2010).

Tests used:
[1] = test system: aortic rings from rabbits; assay: HOCl-induced endothelial dysfunction in aortic rings from rabbits fed supplemented diet; type: in vivo, New Zealand White rabbits; conditions: dietary 1% probucol, 0.2% DTBP or 0.02% BP, 4 weeks; for Relaxation to ACh of aortic rings after 400 μM HOCl: FIG. 6A; for Tissue cGMP of aortic rings after 400 μM HOCl and 1 μM ACh: FIG. 6B
Description: All other reagents were of the highest quality available. Buffers were routinely filtered, argon-flushed and stored at 4° C. prior to use. Solutions of HOCl were prepared freshly before use by diluting reagent HOCl (Aldrich) into phosphate buffer (250 mM, pH 7.0) and standardizing with ε235 nm˜100 M^−1cm^−1 (hypochlorous acid) and ε290 nm˜300 M^−1cm^−1 (hypochlorite), as described in Journal of Physical Chemistry 1966, 70:3798-3805. Animals: New Zealand White rabbits (2.5-3 kg) were obtained from a commercial farm (Wauchope, NSW Australia) and housed individually for the entire study period. […] Feed and water were provided ad libitum for a period of 4 weeks judged to be sufficient time for circulating drug levels to reach a maximum (data not shown). […] The local ethics committee approved the study. Vascular reactivity: Perfused rabbit aortas were harvested and vascular reactivity studies performed as described in Circulation 2003, 107:2031-2036. Briefly, within 2 h of isolation, ring segments ˜5 mm in length were mounted in a myobath system (World Precision Instruments, Sarasota, Fla.) containing 20 mL of Krebs solution aerated at 37° C. with 5% CO2(g), and the dilatory response of half maximally norepinephrine pre-constricted rings to incremental doses of ACh (10^−9-10^−5 mol/L) determined. Where indicated, reagent HOCl (final concentration 400 μM) was added to the Krebs solution and the rings incubated for 5 min prior to thorough washing, pre-constriction and assessment of vessel relaxation. In some studies rings were incubated with probucol or DTBP for 10 min, washed thoroughly and then exposed to HOCl prior to assessing endothelium-dependent relaxation. A maximum of three consecutive sequences of constriction/relaxation were performed for each ring. Preparation of Aortic Homogenates: Aortic Rings Used in the Vascular Function Studies were removed and immediately cut into small pieces, frozen in liquid nitrogen, and then pulverized and homogenized as described. An aliquot (50 μL) of homogenate was removed for protein determination (BCA assay, Sigma) and the remainder extracted into methanol/hexane (5:1, v/v), the resulting hexane fraction dried and the residue suspended in isopropanol for analysis of probucol and its oxidation products. For cGMP determinations, aortic segments were treated with vehicle (control) or HOCl (400 μM) before addition of 1 μM ACh in the presence of 200 μM 3-isobutyl-1-methylxanthine and measurement of cGMP in the homogenate using a kit (Cayman Chemical, Ann Arbor, Mich.). Probucol oxidation studies: Probucol is a highly lipophilic compound (partition coefficient between octanol and water=[…]) that readily distributes into lipoproteins. To mimic the biological situation, oxidation reactions were therefore performed with probucol (or DTBP) dissolved in hexane (2 mL) to which aliquots of HOCl were added to give the final concentrations indicated. The heterogeneous mixtures were shaken vigorously at 37° C. for 60 min, then placed on ice after adding 1 mL water, the hexane phase removed, dried under vacuum and resuspended in isopropanol (200 μL) for HPLC analyses (see below). The aqueous phase was analyzed for the content of sulfate anion (SO4^2−) by ion exchange chromatography (see below). Analytical analyses: Probucol, DTBP, BP and DPQ were analyzed by gradient reversed-phase HPLC and quantified by peak area comparison with authentic standards. Under the conditions used, BP, DTBP, probucol and DPQ eluted at 12.5, 19.2, 20.8 and 28.4 min, respectively. Other oxidation products resolved by this HPLC system were also quantified by peak area comparison, using analytically pure samples obtained from semi-preparative (LC-18, 20 mm×25 cm, 5 μm) fractionation of the reaction mixture. Isolated samples were dried under vacuum, re-dissolved to a known concentration and assessed for purity by analytical HPLC (LC-18, 4.6 mm×25 cm, 5 μm) in combination with mass spectrometry (see below). […]

[2] = test system: New Zealand White rabbits; assay: Apoptosis (TUNEL) and proliferation (PCNA) of vascular cells after aortic balloon injury in rabbits; type: in vivo; conditions: for Apoptosis (TUNEL+ cells): FIG. 16d; for Cell proliferation (PCNA+ cells): FIG. 16e
Excerpt: Materials and methods were as described in Example 6, except that for some experiments, aortas were also harvested 4 days (n=8 per group) after balloon injury. Sections immediately adjacent sections to those used for lesion assessment were employed for immunohistochemistry, using CD31 (endothelium, dilution 1:50, DAKO), Mac-3 (macrophages, dilution 1:200, DAKO), PCNA (cell proliferation, dilution 1:500, DAKO) and anti-rat HO-1 monoclonal antibody (dilution 1:50, Santa Cruz) with avidin-biotin-horseradish peroxidase for signal detection (Vectorstain Elite ABC Kit, Vector Laboratories). Apoptosis was assessed using the TUNEL assay kit (Roche) according to the manufacture's instructions. Digital images were taken for quantitative morphometric analysis. Intimal, medial and Mac-3^+ areas were determined using Adobe Photoshop V6.0 by tracing. Re-endothelialization was determined in longitudinal sections as the distance of CD31^+ cells from the branch orifice using Scion Image Software (Scion, ML, USA). Total cell profiles, TUNEL^+ and PCNA^+ cells were counted manually at high magnification (40× objective).

heme oxygenase-1 (HO-1) = assay: Heme oxygenase-1 expression, mRNA and heme oxygenase activity in rabbit aorta after balloon injury; type: in vivo, rabbits; conditions: for HO-1 expression in the media of damaged aortas (immunohistochemistry): 4 days after balloon injury, FIG. 16a; for Tissue levels of HO-1 mRNA / Heme oxygenase activity in aorta: 4 days after ABI; for Tissue levels of HO-1 mRNA: FIG. 16b; for Heme oxygenase activity in aorta: FIG. 16c
[3] = Stopped-flow kinetics of reaction with HOCl in 70% aqueous ethanol; type: physicochemical; conditions: 70% EtOH, 25° C.
[4] = test system: New Zealand White rabbits; assay: Re-endothelialization and vascular reactivity after aortic balloon injury in rabbits; type: in vivo; conditions: for Endothelium-dependent relaxation (acetylcholine) / Tissue content of cGMP in response to acetylcholine: aortic rings six weeks after injury; for Endothelium-dependent relaxation (acetylcholine): FIG. 15c; for Tissue content of cGMP in response to acetylcholine: FIG. 15d; for Regeneration of endothelium (length covered by CD31+ cells) / Intima-to-media ratio at CD31-positive sites: six weeks after injury; for Regeneration of endothelium (length covered by CD31+ cells): FIG. 15b; for Intima-to-media ratio at CD31-positive sites: not shown
[5] = test system: New Zealand White rabbits; assay: Rabbit aortic balloon-injury model with heme oxygenase blocked by tin protoporphyrin; type: in vivo; conditions: plus tin protoporphyrin 7.5 mg/kg i.p. every other day; for Ability to inhibit intimal thickening when heme oxygenase is blocked: nine weeks, FIG. 19a; for Ability to promote re-endothelialization when heme oxygenase is blocked: FIG. 19b; for Ability to inhibit vascular smooth muscle cell proliferation when heme oxygenase is blocked: FIG. 19c
Description: Inhibition of heme oxygenase activity. Three groups of male New Zealand White rabbits (n=6 per group) that were fed 100 g per day of normal chow±1% probucol or 0.02% DTBP (wt/wt) received intraperitoneal injection of tin protoporphyrin (SnPP, Frontier Scientific, 7.5 mg/kg) every other day as described in American Journal of Physiology, Heart and Circulatory Physiology 2000; 278:H623-H632 for the entire nine week duration of the experiment, with balloon injury at the end of week three and lesion assessment after a further six weeks.

[6] = day 4 after aortic balloon injury
[7] = day 42 after aortic balloon injury

| SMILES | Relaxation to ACh of aortic rings after 400 μM HOCl [1] | Tissue cGMP of aortic rings after 400 μM HOCl and 1 μM ACh [1] | Apoptosis (TUNEL+ cells) [2, 6] | HO-1 expression in the media of damaged aortas (immunohistochemistry) (heme oxygenase-1 (HO-1)) | Rate constant k for oxidation by HOCl (single rate-determining process) [3] | Endothelium-dependent relaxation (acetylcholine) [4] | Tissue content of cGMP in response to acetylcholine [4] | Regeneration of endothelium (length covered by CD31+ cells) [4] | Intima-to-media ratio at CD31-positive sites [4] | Ability to inhibit intimal thickening when heme oxygenase is blocked [5] | Ability to promote re-endothelialization when heme oxygenase is blocked [5] | Ability to inhibit vascular smooth muscle cell proliferation when heme oxygenase is blocked [5] | Cell proliferation (PCNA+ cells) ([2]; day 4 after ABI) | Cell proliferation (PCNA+ cells) ([2]; day 42 after ABI) | Apoptosis (TUNEL+ cells) [2, 7] | Tissue levels of HO-1 mRNA (heme oxygenase-1 (HO-1)) | Heme oxygenase activity in aorta (heme oxygenase-1 (HO-1)) | Rate constant k1 for oxidation by HOCl (rapid phase of DPQ accumulation) [3] | Rate constant k2 for oxidation by HOCl (slow phase of DPQ accumulation) [3] |
| --- | --- | --- | --- | --- | --- | --- | --- | --- | --- | --- | --- | --- | --- | --- | --- | --- | --- | --- | --- |
| CC(C)(C)c1cc(-c2cc(C(C)(C)C)c(O)c(C(C)(C)C)c2)cc(C(C)(C)C)c1O [BP, 3,3′,5,5′-tetra-tert-butyl-4,4′-bisphenol] | responded to HOCl indistinguishably from control | ineffective | not BP | but not BP, induced HO-1 expression |  |  |  |  |  |  |  |  |  |  |  |  |  |  |  |
| CC(C)(C)c1cc(SSc2cc(C(C)(C)C)c(O)c(C(C)(C)C)c2)cc(C(C)(C)C)c1O [DTBP, 4,4′-dithiobis(2,6-di-tert-butyl-phenol)] | preserved the vascular function of isolated rings to an extent comparable to that seen with probucol | increase in tissue cGMP | significantly enhanced apoptosis | induced HO-1 expression | 0.7±0.1×10^2 M^−1 s^−1 | enhanced | enhanced | significantly enhanced | significantly decreased | completely prevented | completely prevented | completely prevented | not day 4 | significant decrease in cell proliferation | not at day 42 | significantly increased | significantly increased |  |  |
| CC(C)(Sc1cc(C(C)(C)C)c(O)c(C(C)(C)C)c1)Sc1cc(C(C)(C)C)c(O)c(C(C)(C)C)c1 [probucol] | retained responsiveness to ACh | greater content of cGMP | significantly enhanced apoptosis | induced HO-1 expression |  | enhanced | enhanced | significantly enhanced | significantly decreased | completely prevented | completely prevented | completely prevented | not day 4 | significant decrease in cell proliferation | not at day 42 | significantly increased | significantly increased | 2.7±0.3×10^2 M^−1 s^−1 | 0.7±0.2×10^2 M^−1 s^−1 |
